Assay results reported in ChEMBL document CHEMBL5329212, “In situ click chemistry-based discovery of 1,2,3-triazole-derived diarylpyrimidines as novel HIV-1 NNRTIs by exploiting the tolerant region I in binding pocket” (Bioorg Med Chem, 2023).
One block for each compound: values may come before it.

Experiments:
[1] = test system: Human immunodeficiency virus 1; assay: Antiviral activity against HIV-1 harboring RT Y188L mutant infected in human MT4 cells assessed as protection against virus-induced cytopathic effect measured after 5 days by MTT assay; assay type: functional, organism-based; details: Human immunodeficiency virus 1, MT4, 120 h
[2] = test system: Human immunodeficiency virus 1; assay: Antiviral activity against HIV-1 harboring RT RES056 mutant infected in human MT4 cells assessed as protection against virus-induced cytopathic effect measured after 5 days by MTT assay; assay type: functional, organism-based; details: Human immunodeficiency virus 1, MT4, 120 h
[3] = test system: Human immunodeficiency virus 1; assay: Antiviral activity against HIV-1 harboring RT Y181C mutant infected in human MT4 cells assessed as protection against virus-induced cytopathic effect measured after 5 days by MTT assay; assay type: functional, organism-based; details: Human immunodeficiency virus 1, MT4, 120 h
[4] = test system: Human immunodeficiency virus 1; assay: Antiviral activity against HIV-1 harboring RT L100I mutant infected in human MT4 cells assessed as protection against virus-induced cytopathic effect measured after 5 days by MTT assay; assay type: functional, organism-based; details: Human immunodeficiency virus 1, MT4, 120 h
[5] = test system: Human immunodeficiency virus 1; assay: Antiviral activity against HIV-1 harboring RT E138K mutant infected in human MT4 cells assessed as protection against virus-induced cytopathic effect measured after 5 days by MTT assay; assay type: functional, organism-based; details: Human immunodeficiency virus 1, MT4, 120 h
[6] = test system: Human immunodeficiency virus 1; assay: Antiviral activity against wild type HIV-1 IIIB infected in human MT4 cells assessed as protection against virus-induced cytopathic effect measured after 5 days by MTT assay; assay type: functional, organism-based; details: Human immunodeficiency virus 1, IIIB, MT4, 120 h
[7] = test system: Human immunodeficiency virus 1; assay: Antiviral activity against HIV-1 harboring RT K103N mutant infected in human MT4 cells assessed as protection against virus-induced cytopathic effect measured after 5 days by MTT assay; assay type: functional, organism-based; details: Human immunodeficiency virus 1, MT4, 120 h
[8] = Cytotoxicity against human MT4 cells assessed as reduction in cell viability measured after 5 days by MTT assay; assay type: toxicity, cell-based; details: time 5 day
[9] = test system: Human immunodeficiency virus 1; assay: Antiviral activity against HIV-1 harboring RT F227L/V106A double mutant infected in human MT4 cells assessed as protection against virus-induced cytopathic effect measured after 5 days by MTT assay; assay type: functional, organism-based; details: Human immunodeficiency virus 1, MT4, 120 h
[10] = biological target: Human immunodeficiency virus type 1 reverse transcriptase (Human immunodeficiency virus 1) (UniProt Q72547); assay: Inhibition of HIV-1 reverse transcriptase at 0.267 uM incubated for 1 hrs in presence of biotin-labeled dNTPs by ELISA assay relative to control
[11] = biological target: Human immunodeficiency virus type 1 reverse transcriptase (Human immunodeficiency virus 1, UniProt Q72547); assay: Inhibition of HIV-1 reverse transcriptase incubated for 1 hrs in presence of biotin-labeled dNTPs by ELISA assay

Structure (SMILES): Cc1ccnc2c1NC(=O)c1cccnc1N2C1CC1 [NEVIRAPINE]
- EC50 [1]: > 951 µM
- EC50 [2]: > 951 µM
- EC50 [3]: 5.66 µM
- EC50 [4]: 1.45 µM
- EC50 [5]: 0.13 µM
- EC50 [6]: 0.1 µM
- EC50 [7]: 4.93 µM
- CC50 at 120 h [8]: > 951 µM
- EC50 [9]: > 951 µM

- inhibition [10]: 4.1%
Structure (SMILES): Cc1cc(C#N)cc(C)c1Oc1nc(Nc2ccc(-c3cn(CC(=O)Nc4ccc(Br)cc4)nn3)cc2)nc2ccsc12

Structure (SMILES): Cc1cc(C#N)cc(C)c1Oc1nc(Nc2ccc(-c3cn(-c4ccc5c(c4)OCO5)nn3)cc2)nc2ccsc12
- EC50 [1]: 165 µM
- EC50 [2]: > 223 µM
- EC50 [3]: 69.4 µM
- IC50 [11]: 1.05 µM
- EC50 [4]: 10.9 µM
- inhibition [10]: 50%
- EC50 [5]: 7.17 µM
- EC50 [6]: 1.8 µM
- EC50 [7]: 2.01 µM
- CC50 at 120 h [8]: > 223 µM
- EC50 [9]: 77.8 µM

- inhibition [10]: 24.9%
Structure (SMILES): Cc1cc(C#N)cc(C)c1Oc1nc(Nc2ccc(-c3cn(C[S+]([O-])c4ccccc4)nn3)cc2)nc2ccsc12 (stereo not drawn)

Structure (SMILES): Cc1cc(C#N)cc(C)c1Oc1nc(Nc2ccc(-c3cn(Cc4ccc(C(F)(F)F)cc4)nn3)cc2)nc2ccsc12
- EC50 [1]: 3.12 µM
- EC50 [2]: 25.5 µM
- EC50 [3]: 2.39 µM
- IC50 [11]: 0.45 µM
- EC50 [4]: 0.84 µM
- inhibition [10]: 74.2%
- EC50 [5]: 0.69 µM
- EC50 [6]: 0.19 µM
- EC50 [7]: 0.33 µM
- CC50 at 120 h [8]: 88.2 µM
- EC50 [9]: 8.88 µM

- inhibition [10]: 0.4%
Structure (SMILES): COc1cccc(Cn2cc(-c3ccc(Nc4nc(Oc5c(C)cc(C#N)cc5C)c5sccc5n4)cc3)nn2)c1

Structure (SMILES): Cc1cc(C#N)cc(C)c1Oc1nc(Nc2ccc(-c3cn(Cc4ccc(C(F)(F)F)cc4F)nn3)cc2)nc2ccsc12
- EC50 [1]: 18.6 µM
- EC50 [2]: 34.4 µM
- EC50 [3]: 3.69 µM
- IC50 [11]: 1.09 µM
- EC50 [4]: 2.36 µM
- inhibition [10]: 63.6%
- EC50 [5]: 2.45 µM
- EC50 [6]: 0.81 µM
- EC50 [7]: 1.31 µM
- CC50 at 120 h [8]: 129 µM
- EC50 [9]: 21.8 µM

- inhibition [10]: 1.5%
Structure (SMILES): Cc1cc(C#N)cc(C)c1Oc1nc(Nc2ccc(-c3cn(Cc4ccc5ccccc5c4)nn3)cc2)nc2ccsc12

Structure (SMILES): O=C1Nc2ccc(Cl)cc2[C@@](C#CC2CC2)(C(F)(F)F)O1 [EFAVIRENZ]
- EC50 [1]: 0.43 µM
- EC50 [2]: 0.43 µM
- EC50 [3]: 0.008 µM
- EC50 [4]: 0.08 µM
- EC50 [7]: 0.13 µM
- CC50 at 120 h [8]: > 635 µM
- EC50 [9]: 0.5 µM

- inhibition [10]: 25.6%
Structure (SMILES): Cc1cc(C#N)cc(C)c1Oc1nc(Nc2ccc(-c3cn(CS(=O)(=O)c4ccccc4)nn3)cc2)nc2ccsc12

- inhibition [10]: 28%
Structure (SMILES): COc1ccc(-n2cc(-c3ccc(Nc4nc(Oc5c(C)cc(C#N)cc5C)c5sccc5n4)cc3)nn2)cc1

Structure (SMILES): CCOC(=O)c1ccc(Cn2cc(-c3ccc(Nc4nc(Oc5c(C)cc(C#N)cc5C)c5sccc5n4)cc3)nn2)cc1
- EC50 [1]: > 208 µM
- EC50 [2]: > 208 µM
- EC50 [3]: 120 µM
- IC50 [11]: 0.43 µM
- EC50 [4]: 34.8 µM
- inhibition [10]: 60%
- EC50 [5]: 0.78 µM
- EC50 [6]: 0.54 µM
- EC50 [7]: 0.86 µM
- CC50 at 120 h [8]: > 208 µM
- EC50 [9]: > 208 µM

- inhibition [10]: 35.3%
Structure (SMILES): COC(=O)CCCn1cc(-c2ccc(Nc3nc(Oc4c(C)cc(C#N)cc4C)c4sccc4n3)cc2)nn1

- inhibition [10]: 31.9%
Structure (SMILES): Cc1cc(C#N)cc(C)c1Oc1nc(Nc2ccc(-c3cn(CSc4ccccc4)nn3)cc2)nc2ccsc12

- inhibition [10]: 17.3%
Structure (SMILES): Cc1cc(C#N)cc(C)c1Oc1nc(Nc2ccc(-c3cn(-c4ccc(C(=O)O)cc4Cl)nn3)cc2)nc2ccsc12

- inhibition [10]: 1.9%
Structure (SMILES): Cc1cc(C#N)cc(C)c1Oc1nc(Nc2ccc(-c3cn(CCc4ccsc4)nn3)cc2)nc2ccsc12

- inhibition [10]: 23.1%
Structure (SMILES): Cc1cc(C#N)cc(C)c1Oc1nc(Nc2ccc(-c3cn(Cc4ccccc4Cl)nn3)cc2)nc2ccsc12

- inhibition [10]: 12.8%
Structure (SMILES): Cc1cc(C#N)cc(C)c1Oc1nc(Nc2ccc(-c3cn(CC(=O)N4CCCC4)nn3)cc2)nc2ccsc12

- inhibition [10]: 1.6%
Structure (SMILES): Cc1cc(C#N)cc(C)c1Oc1nc(Nc2ccc(-c3cn(Cc4ccc([N+](=O)[O-])cc4)nn3)cc2)nc2ccsc12

- inhibition [10]: 20%
Structure (SMILES): Cc1cc(C#N)cc(C)c1Oc1nc(Nc2ccc(-c3cn(-c4cnc5ccccc5c4)nn3)cc2)nc2ccsc12

- inhibition [10]: 0.1%
Structure (SMILES): Cc1cc(C#N)cc(C)c1Oc1nc(Nc2ccc(-c3cn(-c4cc5ccccc5s4)nn3)cc2)nc2ccsc12

- inhibition [10]: 0.9%
Structure (SMILES): Cc1cc(C#N)cc(C)c1Oc1nc(Nc2ccc(-c3cn(Cc4cccc([N+](=O)[O-])c4)nn3)cc2)nc2ccsc12

- inhibition [10]: 23.4%
Structure (SMILES): Cc1cc(C#N)cc(C)c1Oc1nc(Nc2ccc(-c3cn(CC(=O)Nc4ccc(S(C)(=O)=O)cc4)nn3)cc2)nc2ccsc12

- inhibition [10]: 0.2%
Structure (SMILES): Cc1cc(C#N)cc(C)c1Oc1nc(Nc2ccc(-c3cn(Cc4ccccc4C#N)nn3)cc2)nc2ccsc12
